Source: ChEMBL document CHEMBL1287668, “Synthesis, antioxidant and toxicological study of novel pyrimido quinoline derivatives from 4-hydroxy-3-acyl quinolin-2-one” (Bioorg Med Chem Lett, 2010)

Experiments:
[1] = Antioxidant activity assessed as total reducing activity after 30 mins by spectrophotometric analysis; format: functional
[2] = Antioxidant activity assessed as ferric ion reducing ability by spectrophotometric analysis; format: functional
[3] = Antioxidant activity assessed as EDTA chelating effect after 10 mins by spectrophotometric analysis; format: functional
[4] = tested on: Radical scavenging activity; experiment: Antioxidant activity assessed as DPPH free radical scavenging activity after 30 mins by spectrophotometric analysis; format: functional
[5] = Antioxidant activity assessed as nitric oxide scavenging activity after 150 mins by spectrophotometric analysis; format: functional; design: concentration or dose not given beside the values
[6] = Antioxidant activity assessed as super oxide scavenging activity after 150 mins by spectrophotometric analysis; format: functional; design: concentration or dose not given beside the values
Rattus norvegicus [7] = experiment: Toxicity in Wistar rat assessed as incidence of convulsion at 200 mg/kg, po measured after 24 hrs; format: organism-based; design: dose 200 mg/kg, route oral; details: in vivo
Rattus norvegicus [8] = experiment: Toxicity in Wistar rat assessed as incidence of tremor at 200 mg/kg, po measured after 24 hrs; format: organism-based; design: dose 200 mg/kg, route oral; details: in vivo
Rattus norvegicus [9] = experiment: Toxicity in Wistar rat assessed as grip strength at 200 mg/kg, po measured after 24 hrs; format: organism-based; design: dose 200 mg/kg, route oral; details: in vivo
Rattus norvegicus [10] = experiment: Toxicity in Wistar rat assessed as pupil dilatation at 200 mg/kg, po measured after 24 hrs; format: organism-based; design: dose 200 mg/kg, route oral; details: in vivo
Rattus norvegicus [11] = experiment: Toxicity in Wistar rat fed 4 hrs post dosing assessed as incidence of adverse effects at 2 mg/kg, po administered as single dose measured on day one; format: organism-based; design: dose 2 mg/kg, route oral; details: in vivo
Rattus norvegicus [12] = experiment: Toxicity in Wistar rat fed 4 hrs post dosing assessed as incidence of adverse effects at 2 mg/kg, po administered as single dose measured on day 14; format: organism-based; design: dose 2 mg/kg, route oral; details: in vivo
[13] = Toxicity in po dosed Wistar rat; format: organism-based; details: in vivo

Row | SMILES | Activity [1] [µmol] | Activity [2] [mmol] | Activity [3] [mg] | Activity [4] [µg] | Activity [5] [%] | Activity [6] [%] | Activity (Rattus norvegicus [7]) | Activity (Rattus norvegicus [8]) | Activity (Rattus norvegicus [9]) | Activity (Rattus norvegicus [10]) | Activity (Rattus norvegicus [11]) | Activity (Rattus norvegicus [12]) | MTD [13] [mg/kg]
1 | Cc1nc(=O)[nH]c2c1c(=O)[nH]c1ccccc12 | 3880 | 205 | 10.7 | 1410 | 62.3 | 38 | Toxic | Toxic | Toxic | Toxic | Non-toxic | Non-toxic | 2000
2 | Cc1nc(=S)[nH]c2c1c(=O)[nH]c1ccccc12 | 3630 | 145 | 9.6 | 1040 | 12 | 22.4 |  |  |  |  |  |  | 
3 | Cc1cc(C(C)(C)C)c(O)c(C(C)(C)C)c1 | 13100 | 134 | 13.2 | 150 | 92.1 | 87.1 |  |  |  |  |  |  | 
4 | Cc1[nH]nc2c1c(=O)[nH]c1ccccc12 | 1230 | 150 | 10.4 | 1110 | 18.5 | 8.7 |  |  |  |  |  |  | 
5 | CC1=NNC(=S)Nc2c1c(=O)[nH]c1ccccc21 | 2650 |  | 9.1 | 752 | 61.6 | 74.5 | Toxic | Toxic | Toxic | Toxic | Non-toxic | Non-toxic | 2000
6 | CC1=NNC(=O)Nc2c1c(=O)[nH]c1ccccc21 | 2590 |  | 12.3 | 540 | 16.1 | 40.9 |  |  |  |  |  |  | 
7 | COc1ccc(O)c(C(C)(C)C)c1.COc1ccc(O)cc1C(C)(C)C | 8050 |  | 16.1 | 170 | 79.1 | 76.5 |  |  |  |  |  |  | 
8 | Cc1noc2c1c(=O)[nH]c1ccccc12 | 4010 | 169 | 4.9 | 466 | 40.3 | 16.6 |  |  |  |  |  |  | 
